# Key:
# [1] = tested on: Hek Blue human or mouse Mincle-expressing cells; type: cell-based; conditions: top concentrations, 24 h; compared with vehicle only-treated cells
# [2] = biological target: T1, human Mincle (Homo sapiens, UniProt Q9ULY5); assay: HEK cells expressing human Mincle with NF-κB-driven SEAP reporter; type: cell-based; conditions: plate-coated compound, 24 h
# T1 construct: host or cells: HEK (HEK-Blue) cells with NF-κB-driven SEAP reporter
# T1 sequence (Q9ULY5 1-219): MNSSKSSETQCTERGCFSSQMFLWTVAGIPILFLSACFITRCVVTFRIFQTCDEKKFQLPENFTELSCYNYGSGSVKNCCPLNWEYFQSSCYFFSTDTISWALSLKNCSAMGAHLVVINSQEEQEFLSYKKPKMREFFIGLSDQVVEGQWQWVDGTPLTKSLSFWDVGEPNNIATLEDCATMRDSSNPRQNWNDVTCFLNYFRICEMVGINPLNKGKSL
# Method: Human and mouse Mincle expressing HEK cells were obtained from Invivogen (San Diego, CA). Cells were cultured according to the manufactures instructions in DMEM with 10% FBS, 50 U/ml penicillin, […] streptomycin, […] Normocin, 2 mM L-glutamine, 30 μg/ml blasticidin, 1 μg/ml puromycin and 1x HEK-Blue™ CLR Selection. For assay, indicated compounds were serially diluted in diluent (50%IPA/50% isooctane), 20 μl of a 10x final concentration were applied to the bottom of a 96-well tissue culture plate and the solvent was evaporated for >1 h in a biosafety hood. HEK cells were applied to the plates at a density of 3 × 10^5 cells/well and incubated for 18–24 h at 37°C. Cell supernatants were harvested and analyzed via the manufacturer's instructions using Hek-Blue^TM Detection. SEAP activity was assessed by reading the optical density (OD) at 620–655 nm with a microplate reader; data are expressed as the fold change in OD over vehicle treated cells.
# To investigate the capacity of these molecules to bind to and activate the Mincle receptor, we used human embryonic kidney (HEK) cells expressing the human or mouse Mincle receptor along with an NF-κB-driven secreted embryonic alkaline phosphatase (SEAP) reporter. Many of the αTDE compounds were able to induce production of SEAP in a dose dependent manner (Figure 2). HEK null cells (HEK cells containing the NF-kB reporter without Mincle receptor) were used as a negative controls to confirm the receptor specificity of the compounds in HEK cells expressing human or mouse Mincle reporter (Supplemental Figure 4). […] The relative activity of TDM and TDB in the human and mouse HEK cells is consistent with the results reported by others ([20]). […] This synthetic version is a shorter chain version of the lipid-derived one reported to be “human-specific” ([28]).
# Figure 2 Activation of human or mouse Mincle in response to synthetic αTDE compounds. The indicated compounds were dissolved in 50% isopropanol/isooctane, serially diluted in vehicle and then dried to the bottom of a tissue culture plate. HEK cells transfected with human (A–C) or mouse (D–F) Mincle and an NF-κB-driven SEAP reporter were incubated with the compounds for 24 h followed by assessment of the supernatants for SEAP levels. Data are represented as fold change in OD650 over vehicle treated cells. Graphs are mean values from three independent experiments ± SEM. Table in (G) represents the average calculated EC50 and average max SEAP value (± SD, n = 3) for each compound in each cell line. […]
smiles,measurement,setting,value
"CCCCCCCCCCCCCCCCCCCCCC(=O)OC[C@H]1O[C@H](O[C@H]2O[C@H](COC(=O)CCCCCCCCCCCCCCCCCCCCC)[C@@H](O)[C@H](O)[C@H]2O)[C@H](O)[C@@H](O)[C@@H]1O [TDB, trehalose dibehenate, reference compound]",Cell viability of Mincle HEK cells,[1],marked decreases in viability
same,SEAP induction / activation of human Mincle-expressing HEK cells (in words),[2],robust ability to activate
